Reference: US20090170838A1, “Bicycloheteroaryl compounds as P2X7 modulators and uses thereof” (Renovis, Inc., priority 2005, published 2009)

Biological target: T1, P2X7 receptor (Homo sapiens, UniProt Q99572)
T1 construct: host or cells: THP-1 cells differentiated with LPS and IFN-γ
T1 sequence (Q99572 1-595): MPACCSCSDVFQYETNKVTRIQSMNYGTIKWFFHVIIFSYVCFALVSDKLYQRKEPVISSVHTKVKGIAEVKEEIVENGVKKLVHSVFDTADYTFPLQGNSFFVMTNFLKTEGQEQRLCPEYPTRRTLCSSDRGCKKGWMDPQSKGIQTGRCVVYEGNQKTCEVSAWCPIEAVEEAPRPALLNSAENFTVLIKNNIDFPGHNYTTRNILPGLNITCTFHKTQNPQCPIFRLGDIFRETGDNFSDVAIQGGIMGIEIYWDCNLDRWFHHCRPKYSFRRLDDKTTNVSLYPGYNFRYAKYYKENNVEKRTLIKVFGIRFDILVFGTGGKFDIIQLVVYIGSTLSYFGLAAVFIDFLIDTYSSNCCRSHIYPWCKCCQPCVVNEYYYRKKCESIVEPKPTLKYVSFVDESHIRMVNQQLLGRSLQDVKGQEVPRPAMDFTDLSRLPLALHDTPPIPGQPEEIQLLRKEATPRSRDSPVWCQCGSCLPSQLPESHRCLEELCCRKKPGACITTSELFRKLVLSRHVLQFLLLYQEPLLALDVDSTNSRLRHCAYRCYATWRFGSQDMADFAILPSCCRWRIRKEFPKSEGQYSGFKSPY
Test: IL-1β release assay (BzATP-stimulated, LPS/IFN-γ differentiated THP-1 cells, ELISA)
Assay type: cell-based
Settings: for inhibition at 0.1 µM: at 0.1 μM (asterisk symbols); for inhibition at 0.3 µM: at 0.3 μM (plus symbols)
Protocol: THP-1 cells (ATCC Cat # 285-IF-100) are plated in 96 well plates at a concentration of 200,000 cells per well and allowed to differentiate in RPMI-1640 media (ATCC Cat # 30-2001) containing 10% FBS, 100 IU/mL penicillin, 100 ug/mL streptomycin, 100 ng/mL LPS and 100 ng/mL IFN-γ for 16 hours. Following differentiation, the cells are treated for an additional 2 hours in RPMI-1640 media containing 100 IU/mL penicillin, 100 ug/mL streptomycin and fresh LPS at 100 ng/mL. The cells are then pretreated for 30 minutes with the compound of interest at the appropriate concentration in RPMI media containing 100 IU/mL penicillin, 100 ug/mL streptomycin. Following the pretreatment 2′,3′-O-(4-benzoylbenzoyl)-adenosine 5′-triphosphate (Sigma Aldrich Cat# B6396) is added to a final concentration of 250 uM and the cells incubated for an additional 45 minutes. 30 uL of cell supernatant is then collected and […] levels determined via ELISA (R&D systems Cat. # HSLB50) according to manufacturer's recommendations using the Tecan Safire plate reader. Background adjusted IL-1β levels of drug treated and non-treated cells are used to calculate the percent inhibition.

Structure (SMILES) | inhibition at 0.1 µM | inhibition at 0.3 µM
Cn1ccc2c(NC(=O)CC34CC5CC(CC(C5)C3)C4)cccc2c1=O [Compound 805, adamantyl-N-(2-methyl-1-oxo-1,2-dihydroisoquinolin-5-yl)acetamide] | ≥ 75% | –
O=C(CC12CC3CC(CC(C3)C1)C2)Nc1cccc2c(=O)n(Cc3ccc(F)cc3)ccc12 [Compound 703, 2-Adamantan-1-yl-N-[2-(4-fluoro-benzyl)-1-oxo-1,2-dihydro-isoquinolin-5-yl]-acetamide] | – | ≥ 75%
CC(c1ccccc1)n1ccc2c(NC(=O)CC34CC5CC(CC(C5)C3)C4)cccc2c1=O (centres unmarked) [Compound 711] | – | ≥ 75%
CC12CC3CC(C)(C1)CC(CC(=O)Nc1cccc4c1CCN(Cc1c(F)cccc1F)C4=O)(C3)C2 [Compound 840] | ≥ 75% | –
CC12CC3CC(C)(C1)CC(CC(=O)Nc1cccc4c(=O)n(CCc5c[nH]cn5)ccc14)(C3)C2 [Compound 741] | – | ≥ 75%
CC12CC3CC(C)(C1)CC(CC(=O)Nc1cccc4c(=O)n(Cc5cn6ccccc6n5)ccc14)(C3)C2 [Compound 758] | ≥ 75% | –
O=C(CC12CC3CC(CC(C3)C1)C2)Nc1cccc2c(=O)n(CCc3ccncc3)ccc12 [Compound 784] | ≥ 75% | –
O=C(CC12CC3CC(CC(C3)C1)C2)Nc1cccc2c1CCN(Cc1ccco1)C2=O [Compound 730] | – | ≥ 75%
O=C(CC12CC3CC(CC(C3)C1)C2)Nc1cccc2c(=O)n(CCCn3ccnc3)ccc12 [Compound 824] | 50 to 75% | –
CC12CC3CC(C)(C1)CC(CC(=O)Nc1cccc4c1CCN(Cc1ccccc1)C4=O)(C3)C2 [Compound 777] | ≥ 75% | –
C[C@@H](c1ccccc1)n1ccc2c(NC(=O)CC34CC5CC(CC(C5)C3)C4)cccc2c1=O [Compound 720] | – | ≥ 75%
CCN1CCCC1CN1CCc2c(NC(=O)CC34CC5CC(CC(C5)C3)C4)cccc2C1=O (centres unmarked) [Compound 834] | ≥ 75% | –
O=C(CC12CC3CC(CC(C3)C1)C2)Nc1cccc2c(=O)n(Cc3ccoc3)ccc12 [Compound 873] | ≥ 75% | –
O=C(CC12CC3CC(CC(C3)C1)C2)Nc1cccc2c1CCN(CC1COCCO1)C2=O (centres unmarked) [Compound 796] | ≥ 75% | –
O=C(CC12CC3CC(CC(C3)C1)C2)Nc1cccc2c(=O)n(CC3COc4ccccc4O3)ccc12 (centres unmarked) [Compound 734] | – | ≥ 75%
CC(c1ccccc1)n1ccc2c(NC(=O)CC34CC5CC(C)(CC(C)(C5)C3)C4)cccc2c1=O (centres unmarked) [Compound 742] | – | ≥ 75%
CC(c1ccccc1)N1CCc2c(NC(=O)CC34CC5CC(CC(C5)C3)C4)cccc2C1=O (centres unmarked) [Compound 731] | – | ≥ 75%
CC12CC3CC(C)(C1)CC(CC(=O)Nc1cccc4c1CCN(CCN1CCOCC1)C4=O)(C3)C2 [Compound 815] | 50 to 75% | –
O=C(CC12CC3CC(CC(C3)C1)C2)Nc1cccc2c1CCN(CC1COc3ccccc3O1)C2=O (centres unmarked) [Compound 872] | ≥ 75% | –

Structure (SMILES) | inhibition at 0.1 µM | inhibition at 0.3 µM
O=C(CC12CC3CC(CC(C3)C1)C2)Nc1cccc2c1CCN(CC1CCNCC1)C2=O [Compound 875] | ≥ 75% | –
Cc1cnc(Cn2ccc3c(NC(=O)CC45CC6CC(CC(C6)C4)C5)cccc3c2=O)cn1 [Compound 710] | – | ≥ 75%
O=C(CC12CC3CC(CC(C3)C1)C2)Nc1cccc2c(=O)n(Cc3ccncc3)ccc12 [Compound 716] | – | ≥ 75%
O=C(CC12CC3CC(CC(C3)C1)C2)Nc1cccc2c1CCN(CC1CCOCC1)C2=O [Compound 833] | ≥ 75% | –
O=C(CC12CC3CC(CC(C3)C1)C2)Nc1cccc2c(=O)n(Cc3ccccn3)ccc12 [Compound 714] | – | ≥ 75%
CC12CC3CC(C)(C1)CC(CC(=O)Nc1cccc4c(=O)n(Cc5ccc(F)c(F)c5)ccc14)(C3)C2 [Compound 819] | 50 to 75% | –
C[C@H](CO)n1ccc2c(NC(=O)CC34CC5CC(CC(C5)C3)C4)cccc2c1=O [Compound 897] | – | ≥ 75%
CC12CC3CC(C)(C1)CC(CC(=O)Nc1cccc4c(=O)n(Cc5ccc(S(C)(=O)=O)cc5)ccc14)(C3)C2 [Compound 759] | 50 to 75% | –
CC12CC3CC(C)(C1)CC(CC(=O)Nc1cccc4c1CCN(CCCN1CCOCC1)C4=O)(C3)C2 [Compound 822] | ≥ 75% | –
O=C(CC12CC3CC(CC(C3)C1)C2)Nc1cccc2c(=O)n(CCCN3CCCC3)ccc12 [Compound 789] | ≥ 75% | –
O=C(CC12CC3CC(CC(C3)C1)C2)Nc1cccc2c1CCN(Cc1ccc(F)c(F)c1)C2=O [Compound 799] | ≥ 75% | –
CC12CC3CC(C)(C1)CC(CC(=O)Nc1cccc4c(=O)n(Cc5ccc(F)cc5F)ccc14)(C3)C2 [Compound 764] | ≥ 75% | –
O=C(CC12CC3CC(CC(C3)C1)C2)Nc1cccc2c(=O)n(Cc3ccccc3)ccc12 [Compound 701, 2-adamantan-1-yl-N-(2-benzyl-1-oxo-1,2-dihydro-isoquinolin-5-yl)-acetamide] | – | ≥ 75%
CC12CC3CC(C)(C1)CC(CC(=O)Nc1cccc4c(=O)n(Cc5ccccc5F)ccc14)(C3)C2 [Compound 743] | – | ≥ 75%
CC12CC3CC(C)(C1)CC(CC(=O)Nc1cccc4c1CCN(Cc1ccccn1)C4=O)(C3)C2 [Compound 807] | 0 to 25% | –
CC(C)Cn1ccc2c(NC(=O)CC34CC5CC(CC(C5)C3)C4)cccc2c1=O [Compound 871] | ≥ 75% | –
O=C(CC12CC3CC(CC(C3)C1)C2)Nc1cccc2c(=O)n(CCc3ccccn3)ccc12 [Compound 785] | 50 to 75% | –
O=C(CC12CC3CC(CC(C3)C1)C2)Nc1cccc2c1CCN(Cc1cccnc1)C2=O [Compound 728] | – | ≥ 75%
NC(=O)[C@H](Cc1ccccc1)n1ccc2c(NC(=O)CC34CC5CC(CC(C5)C3)C4)cccc2c1=O [Compound 776] | ≥ 75% | –

Structure (SMILES) | inhibition at 0.1 µM | inhibition at 0.3 µM
CN(C)CCn1ccc2c(NC(=O)CC34CC5CC(CC(C5)C3)C4)cccc2c1=O [Compound 736] | – | ≥ 75%
CC12CC3CC(C)(C1)CC(CC(=O)Nc1cccc4c1CCN(Cc1ccc5c(c1)OCCO5)C4=O)(C3)C2 [Compound 823] | ≥ 75% | –
O=C(CC12CC3CC(CC(C3)C1)C2)Nc1cccc2c(=O)n(Cc3ccc4c(c3)OCO4)ccc12 [Compound 779] | ≥ 75% | –
O=C(CC12CC3CC(CC(C3)C1)C2)Nc1cccc2c1CCN(Cc1ccc(F)cc1)C2=O [Compound 704] | – | ≥ 75%
CN(C)CCn1ccc2c(NC(=O)CC34CC5CC(C)(CC(C)(C5)C3)C4)cccc2c1=O [Compound 763] | 25 to 50% | –
CN1CCN(CCCN2CCc3c(NC(=O)CC45CC6CC(CC(C6)C4)C5)cccc3C2=O)CC1 [Compound 878] | ≥ 75% | –
O=C(CC12CC3CC(CC(C3)C1)C2)Nc1cccc2c(=O)n(Cc3ccco3)ccc12 [Compound 712] | – | ≥ 75%
CC12CC3CC(C)(C1)CC(CC(=O)Nc1cccc4c(=O)n(CCc5ccccn5)ccc14)(C3)C2 [Compound 752] | 50 to 75% | –
CC12CC3CC(C)(C1)CC(CC(=O)Nc1cccc4c1CCN(Cc1ccc(F)cc1F)C4=O)(C3)C2 [Compound 765] | 25 to 50% | –
O=C(CC12CC3CC(CC(C3)C1)C2)Nc1cccc2c(=O)n(C(CO)CO)ccc12 [Compound 826] | ≥ 75% | –
O=C(CC12CC3CC(CC(C3)C1)C2)Nc1cccc2c(=O)n(CCc3cccnc3)ccc12 [Compound 782] | ≥ 75% | –
Cc1nn(-c2ccccc2)nc1Cn1ccc2c(NC(=O)CC34CC5CC(CC(C5)C3)C4)cccc2c1=O [Compound 738] | – | ≥ 75%
CC12CC3CC(C)(C1)CC(CC(=O)Nc1cccc4c(=O)n(Cc5ccccn5)ccc14)(C3)C2 [Compound 744] | – | ≥ 75%
CS(=O)(=O)c1ccc(Cn2ccc3c(NC(=O)CC45CC6CC(CC(C6)C4)C5)cccc3c2=O)cc1 [Compound 768] | 50 to 75% | –
CC(C)(CN1CCOCC1)N1CCc2c(NC(=O)CC34CC5CC(CC(C5)C3)C4)cccc2C1=O [Compound 843] | ≥ 75% | –
O=C(CC12CC3CC(CC(C3)C1)C2)Nc1cccc2c(=O)n(Cc3ccc(C(F)(F)F)cc3)ccc12 [Compound 713] | – | ≥ 75%
O=C(CC12CC3CC(CC(C3)C1)C2)Nc1cccc2c1CCN(CCN1CCOCC1)C2=O [Compound 817] | ≥ 75% | –
NC(=O)[C@H](Cc1c[nH]cn1)n1ccc2c(NC(=O)CC34CC5CC(CC(C5)C3)C4)cccc2c1=O [Compound 882] | ≥ 75% | –
